# “Also recorded” adds a separate entry of the source.
# Columns and labels:
# Assay type in all cases: in vivo, mouse
# [1] = test system: Fmr1 knockout (KO) or Wild Type (WT) mice; experiment: Y-maze spontaneous alternation; conditions: 2 months old, 150 mg/kg once daily 7 days, Study 1
# Experimental: (§1) Fmr1 knockout mice (KO2) mice (The Dutch-Belgium Fragile X Consortium, 1994), initially obtained from the Jackson Laboratory, and wild type (WT) littermates were generated on a C57BL/6J background and repeatedly backcrossed onto a C57BL/6J background for more than eight generations. The Fmr1 knockout mice were housed in groups of the same genotype in a temperature and humidity controlled room with a 12-h light-dark cycle (lights on from 7 am to 7 pm; testing was conducted during light phase). Room temperature and humidity were recorded continuously in the holding room while food and water were available ad libitum. Testing was conducted on healthy Fmr1 knockout mice and their wild type littermates (N=10 mice per treatment group) at 2 or 6 months of age during the behavioral experiments. Mice were housed in commercial plastic cages and experiments were conducted in line with the requirements of the UK Animals (Scientific Procedures) Act, 1986. All experiments were conducted with experimenters blind to genotype and drug treatment. Animals were allowed a minimum acclimatization period of one week prior to performing any experiment. No prophylactic or therapeutic treatment was administered during the acclimatization period.
# (§2) In all cases, saline was used as a vehicle (control).
# Two tasks were implemented. The first was an unlearned assessment of spontaneous alternation between arm entries. […]
# [2] = test system: Fmr1 knockout (KO) or Wild Type (WT) mice; experiment: Y-maze water maze left right discrimination; conditions: 2 months old, 150 mg/kg once daily 7 days, Study 1
# Experimental: as §1, §2
# A clear Perspex Y-maze was filled with 2 cm of water at 20° C. […]
# [3] = test system: Fmr1 knockout (KO) or Wild Type (WT) mice; experiment: T-maze rewarded alternation task; conditions: 2 months old, 150 mg/kg once daily 7 days, Study 1
# Experimental: as §1, §2
# An elevated or enclosed apparatus in the form of a T (placed horizontally) was used. […]
# [4] = test system: Fmr1 knockout (KO) or Wild Type (WT) mice; experiment: Successive alleys (anxiety and hyperactivity); conditions: 2 months old, 150 mg/kg once daily 7 days, Study 1
# Experimental: as §1, §2
# The apparatus consisted of four successive, linearly arranged, increasingly anxiogenic alleys (each succeeding alley was painted a lighter color, had lower walls and/or was narrower than the previous alley) made of painted wood. Each section or alley was 25 cm long. Alley 1 had 25 cm high walls, was 8.5 cm wide, and was painted black. A 0.5 cm step down led to alley 2, which was again 8.5 cm wide, but had 1.3 cm high walls and was grey. A 1.0 cm step down led to alley 3, which was 3.5 cm wide, had 0.8 cm high walls, and was white. A 0.4 cm step led down to alley 4, which was also white, but had 1.2 cm wide and 0.2 cm high walls. The apparatus was elevated by anchoring the back of alley 1 to a stand, 50 cm high. Padding was provided under arms 3 and 4 in case a mouse fell off. Each mouse was placed at the closed end of alley 1 facing the wall. Timers were started 1) for the overall length of the test (5 min)+the latency to enter each arm, and 2) for the time spent in alley 1. When the mouse placed all 4 feet on to the next alley, it was considered to have entered the alley. Total time spent in each alley (all four feet) was recorded.
# Multivariate analysis of variance was employed to assess group differences across data. Repeated measures ANOVA were performed for behavioral data. Statistically significant effects in each ANOVA were followed with post hoc comparisons, using the Newman-Keuls test (Study 1) or the Tukey test (Study 2). A p value of less than 0.05 was considered significant.
# The successive alleys test effectively measured anxiety (latency to enter the Alley 1) and hyperactivity (Alleys 2 to 4). Progression from Alley 1 through the successive Alleys 2, 3, and 4 was associated with exposure to an increasingly brightly colored environment with increasingly lower walls and narrower, more exposed open arms. Time spent on, and entries into, the open arms indicated anxiety; conversely, increasing time spent in more open arms reflected hyperactivity. These factors allowed for a sensitive test bracketing a range of anxiety-like behaviors together with hyperactivity.
# Akt = experiment: Lymphocyte pAkt (flow cytometry); conditions: Fmr1 KO mice, 2 months old
# Experimental: as §2
# The Ras-Mek-ERK and PI3K-Akt-mToR signaling pathways are involved in mediating activity dependent alterations in gene transcription underlying changes in synaptic plasticity (Klann and Dever, 2004). Phosphorylated ERK and Akt protein expression was measured by western blot analysis as previously described by Lopez Verrilli (Lopez Verrilli et al., 2009). The antibodies employed were anti-phosphospecific antibodies against Akt (1/1000) and kinase (ERK) 1/2 (1/2000) (Cell Signaling Technology, Danvers, Mass., USA). The antibody against phospho-ERK detects phosphorylation at phospho-ERK 1/2 (Thr202/Tyr204) whereas the antibody against phospho-Akt detects phosphorylation at phospho-Akt (Thr308). Total Akt and ERK 1/2 protein content and phosphorylated ERK and Akt were evaluated by blotting membranes with antiphospho-Akt (1/1000) and antiphospho-ERK antibodies (1/2000) (Cell Signaling Technology, Danvers, Mass., USA). Akt or ERK phosphorylation was normalized to protein content in the same sample and expressed as % of change with respect to basal conditions, considering basal levels as 100%. Protein loading was evaluated by stripping and re-blotting membranes with j-actin antibody (1/1000) (Sigma-Aldrich, St. Louis, Mo., USA). Phosphorylated ERK and Akt protein expression in blood lymphocytes was measured by flow cytometry. For lymphocyte biomarker determinations, a FACStar plus (Becton Dickinson) was used with the excitation laser tuned at 488 nm and green fluorescence from FITC (GST) was collected through a 515-545 nm bandpass filter. The mean FITC fluorescence Intensity was calculated in relation to the fluorescence of reference cells. The mean cellular fluorescence intensity (MFI) is directly proportional to the mean number of Ab molecules bound per cell.
structure (smiles),measurement,setting,value
"Cc1ncc(CO)c(CO)c1O.O=C1CC[C@@H](C(=O)O)N1 [metadoxine, pyridoxol L,2-pyrrolidon-5 carboxylate]",Y-maze spontaneous alternation,[1],partial reversal of the deficit
same,Y-maze water maze spatial discrimination (incorrect arm entries),[2],deficit was reduced
same,T-maze rewarded alternation working memory (latency to reach the correct arm),[3],reversal being partial; also recorded: significant improvement in memory
same,"successive alleys, Alley 1 (anxiety)",[4]; Fmr1 KO mice,complete normalization occurred
same,"successive alleys, Alley 2 (hyperactivity)",[4]; Fmr1 KO mice,reversal of hyperactivity was partial
same,"successive alleys, Alley 3 (hyperactivity)",[4]; Fmr1 KO mice,hyperactivity was not reversed
same,"successive alleys, Alley 4 (hyperactivity)",[4]; Fmr1 KO mice,reversed this hyperactivity
same,"successive alleys, Alley 1 (anxiety)",[4]; WT mice,no effect on WT mice
same,"successive alleys, Alley 2 (activity)",[4]; WT mice,no effect on WT mice
same,"successive alleys, Alley 3 (activity)",[4]; WT mice,no effect on WT mice
same,"successive alleys, Alley 4 (activity)",[4]; WT mice,no effect on WT mice
same,lymphocyte pAkt,Akt; 150 mg/kg ip once daily 7 days,normalized overactivated Akt
same,lymphocyte pAkt,Akt; 150 mg/kg oral once daily 7 days,normalized overactivated Akt
same,lymphocyte pAkt,Akt; 300 mg/kg oral once daily 7 days,normalized overactivated Akt
